We go through six compounds from patent US20250042848A1, “DEUTERATED FUNCTIONALIZED DERIVATIVES OF alpha-ALANINE, IN [sequence] FOR THE TREATMENT OF NEUROLOGICAL DISEASES” (UNIWERSYTET JAGIELLONSKI, priority 2021, published 2025).

Data set [1] concerns psychomotor seizures induced by a 32 mA, 6 Hz stimulus in mice. Nature of the data set: Psychomotor seizure test 6 Hz (32 mA). The data set is classed as in vivo. The procedure:
(§1) Initial screening was performed on groups of 4 mice. The mean effective dose (ED50) in a given test and the neurotoxic dose in the rotarod test (TD50) were estimated on the basis of the results obtained on 3-4 groups of animals consisting of 6 animals.
(§2) In the psychomotor seizure test (6 Hz test), seizures were induced by a 32 mA and/or 44 mA electrical stimulus of a frequency of 6 pulses per second. An electrical pulse was generated using an electric shock generator (ECT Unit 57800; Ugo Basile, Gemonio, Italy) and delivered to the animal using corneal electrodes. Before starting the test, the eye surface was gently moistened with a solution of local anesthetic (1% lidocaine solution). The study was conducted 30 minutes/2 hours after intraperitoneal administration of the compounds at various doses. An electrical stimulus was delivered continuously for a period of 3 seconds, followed by observation of the animal for a period of 10 seconds. During the experiment, the number of animals with an episode of psychomotor convulsions was counted: motor inhibition, staggering, maintaining a sitting posture, forelimb clonus, twitching of the vibrissae and Straub-tail were observed (Leclercq, K.; Kaminski, R.M. Epilepsia 2015, 56, 310-318).
(§3) The ED50 (effective dose) and TD50 (toxic dose) values along with the corresponding 95% confidence limits were calculated based on the Litchfield and Wilcoxon method (Litchfield, J.T.; Wilcoxon, F. J. Pharmacol. Exp. Ther. 1949, 96, 99-113). To perform a statistical evaluation of the results in the scPTZ test, one-way ANOVA variance analysis followed by Dunnett's post hoc test were used. The values were considered statistically significant if p<0.05.

The test system of data set [2] is psychomotor seizures induced by a 44 mA, 6 Hz stimulus in mice. As to the kind of experiment: Psychomotor seizure test 6 Hz (44 mA). Particulars: in mg/kg. The class given is in vivo. The procedure: as §1, §2, §3
For data set [3], the system named is human liver microsomes (HLMs). Nature of the data set: In vitro metabolic stability, human liver microsomes. The class given is in vitro ADME. To be noted: 120-minute incubation with HLMs. The procedure:
(§4) Metabolic stability assessment was performed using mouse (MLMs) and human (HLMs) liver microsomes purchased from Sigma-Aldrich (St. Louis, MO, USA). The detailed methodology is described in the literature (Kamiński et al. J. Med. Chem. 2015, 58, 5274-5286). The reaction mixture was prepared by mixing […] of the tested compound with mouse or human microsomes (1 mg/mL) in 10 mM TRIS-HCl buffer. The reaction mixture was pre-incubated for 5 min at 37° C. After the initial incubation, 50 μL of the NADPH Regeneration System (Promega, Madison, WI, USA) was added to initiate the reaction. The reaction mixture was then incubated for 120 min at 37° C. 200 μL of cold extra pure methanol was added to complete the reaction. The mixture was then centrifuged at 14,000 g for 15 min and the supernatants were analyzed using a Waters ACQUITY™ TQD LC/MS system with a TQ detector (Waters, Milford, USA). Each experiment was performed in triplicate.
For orientation: Liver microsomes are a subcellular fraction often used to study metabolism.

Data set [4] deals with maximal electroshock seizures in mice. As to the kind of experiment: Maximal electroshock seizure test (MES). The class given is in vivo. The procedure:
as §1
In the maximal electroshock seizure test (MES), the seizures were induced by 500 V, 25 mA electrical stimulus of 0.2 s in duration. The electrical pulse was generated using an electric shock generator (Rodent shocker, Type 221, Hugo Sachs Elektronik, Germany) and delivered to the animal using electrodes placed on the auricles. The study was conducted 30 minutes/2 hours after intraperitoneal administration of the compounds at various doses. During the experiment, the number of animals that experienced a seizure episode in the form of hindlimb tonic extension was counted (Łuszczki, J.J. et al. Fundam. Clin. Pharmacol. 2008, 22, 69-74).
as §3
Background: Protection in the maximal electroshock model is a classic sign of anticonvulsant action.

Data set [5] has as its system motor coordination of mice. Nature of the data set: Rotarod test (motor coordination, acute neurotoxicity). The data set is classed as in vivo. Particulars: in mg/kg. The procedure: as §1
The effect of the tested compounds on motor coordination was assessed in the rotarod test (May Commat, RR 0711 RotaRod, Turkey). The day before the actual experiment, the mice were trained on a rod rotating at 10 revolutions per minute (rpm) for 3 minutes. The experiment was performed 30 minutes and 2 hours after administration of the compounds. The motor coordination of the animals was tested at the speed of the rotating rod: 10 rpm for 60 seconds. The measure of neurotoxicity was the inability to stay on the rod for a given time (Łuszczki, J.J. et al. Eur. Neuropsychopharmacol. 2005, 6, 609-616).
as §3
(The rotarod test checks motor coordination on a turning rod.)

The test system of data set [6] is spontaneous locomotor activity of mice. Particulars: mouse, in vivo; cited from earlier work.
Data set [7] deals with CYP3A4 (Homo sapiens, UniProt P08684). Particulars: cited from earlier work.
CYP3A4, sequence (P08684 whole entry): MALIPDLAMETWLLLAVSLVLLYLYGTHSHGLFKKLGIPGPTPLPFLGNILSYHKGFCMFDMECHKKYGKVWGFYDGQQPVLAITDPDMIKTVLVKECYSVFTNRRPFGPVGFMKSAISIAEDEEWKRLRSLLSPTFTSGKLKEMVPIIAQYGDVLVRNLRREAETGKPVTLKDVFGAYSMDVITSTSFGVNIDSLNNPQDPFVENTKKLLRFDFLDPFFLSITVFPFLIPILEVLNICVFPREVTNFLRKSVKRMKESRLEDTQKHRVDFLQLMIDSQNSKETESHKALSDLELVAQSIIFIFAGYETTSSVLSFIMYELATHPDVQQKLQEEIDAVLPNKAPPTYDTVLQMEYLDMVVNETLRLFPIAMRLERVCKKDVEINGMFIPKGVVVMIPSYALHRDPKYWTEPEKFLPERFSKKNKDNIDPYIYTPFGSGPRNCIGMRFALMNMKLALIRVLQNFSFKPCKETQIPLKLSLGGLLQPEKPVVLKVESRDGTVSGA
Data set [8] concerns human liver microsomes (HLMs). Particulars: cited from earlier work.
Data set [9] concerns mouse liver microsomes (MLMs). Nature of the data set: In vitro metabolic stability, mouse liver microsomes. To be noted: 120-minute incubation with MLMs, NADPH. The class given is in vitro ADME. The procedure: as §4
Data set [10] deals with motor coordination of mice. Particulars: in vivo; cited from earlier work.
In data set [11] the test system is CYP2D9. To be noted: cited from earlier work.
In data set [12] the test system is pentylenetetrazole-induced clonic seizures in mice. As to the kind of experiment: Subcutaneous pentylenetetrazole (scPTZ) seizure test. To be noted: for ED50 scPTZ: mice, in mg/kg; for latency of the first episode of clonic seizures in the scPTZ test: control 740+212.5 seconds. The data set is classed as in vivo. The procedure:
as §1
In the subsutaneous pentylenetetrazole seizure test, the animals received pentylenetetrazole at a dose of 100 mg/kg. Test compounds were administered 30 minutes and 2 hours before the experiment. After PTZ administration, the animals were placed individually in transparent cages and observed for a period of 30 minutes/2 hours. During the experiment, the number of animals with a clonic seizure lasting at least 3 s with loss of balance was counted. In addition, the latency of the onset of the first clonic seizure was measured and compared with the control group (Ferreri, G. et al. Pharmacol. Biochem. Behav. 2004, 77, 859-894; Łączkowski, K. et. al. J. Enzym Inhib. Med. Chem. 2016, 31, 1576-1582).
as §3

Where [13] appears, read: 0.5 h after i.p. administration.
The mark [14] stands for this setting: 2.0 h after i.p. administration.

Some results are limits rather than exact numbers.

In the case of `[2H]C1([2H])C(=O)N([C@H](C)C(=O)NCc2ccccc2F)C(=O)C1([2H])[2H]` [d4-(R)-4, (R)—N-(2-fluorobenzyl)-2-(2,5-dioxopyrrolidin-1-yl-3,3,4,4-d4) propanamide], the ED50 6 Hz (32 mA) in [1] (setting [13]) was determined as 12.8 mg/kg; in data set [1] (setting [14]) it was 19.8 mg/kg. The “ED50 6 Hz (44 mA)” value in [2] (setting [13]) is reported as 51.6; in data set [2] (setting [14]), 36.3. Moreover, the metabolic stability result in [3] is reported as “high metabolic stability”. Also, the ED50 MES was determined as 20.5 mg/kg in data set [4] (setting [13]) and 25.3 mg/kg in [4] (setting [14]). Besides, the “TD50 Rotarod” value in [5] (setting [13]) is 127.2; in data set [5] (setting [14]), over 300.

As to `C[C@H](C(=O)NCc1ccccc1)N1C(=O)CCC1=O` [Compound 1, reference compound], the ED50 6 Hz (32 mA) is 16.8 mg/kg in data set [1] (setting [13]) and over 130 mg/kg in [1] (setting [14]). In addition, the results for the “ED50 6 Hz (44 mA)” value in data set [2] (setting [13]) and in [2] (setting [14]) were 77.3 and over 200, respectively. Moreover, the “sedative effect in spontaneous locomotor activity test on mice” value in [6] is given as “no sedative effect”. In addition, the “interaction with CYP3A4 isoform of cytochrome P-450” value in [7] is listed as “no interaction”. Further, the metabolic stability result in data set [3] is “high metabolic stability”. The “metabolic stability on human microsomes” value in data set [8] was “very high metabolic stability”. In addition, the ED50 MES in [4] (setting [13]) was found to be 57.7 mg/kg; in [4] (setting [14]), 95.3 mg/kg. The “metabolic stability (metabolites in UPLC chromatograms)” value in data set [9] is listed as “no metabolites appeared”. Also, in data set [10], the “effect on mouse motor coordination in the rotarod test” value is “minimal effect”. The “interaction with CYP2D9 isoform of cytochrome P-450” value in data set [11] is on record as “no interaction”. Besides, the “ED50 scPTZ” value in data set [12] (setting [13]) is reported as 30.6; in data set [12] (setting [14]), over 130. Besides, the “latency of the first episode of clonic seizures in the scPTZ test” value in data set [12] (dose 40 mg/kg) is 1568+150.9 seconds; in data set [12] (dose 60 mg/kg), 1467+210.8 seconds. The “TD50 Rotarod” value is on record as 236.2 in [5] (setting [13]) and over 300 in data set [5] (setting [14]).

For the compound `[2H]c1c([2H])c([2H])c(C([2H])([2H])NC(=O)[C@@H](C)N2C(=O)C([2H])([2H])C([2H])([2H])C2=O)c([2H])c1[2H]` [d11-(R)-6, (R)-2-(2,5-dioxopyrrolidin-1-yl-3,3,4,4-d4)-N-((phenyl-d5)methyl-d2) propanamide], the “ED50 6 Hz (44 mA)” value in data set [2] (setting [13]) came to 57.6; in data set [2] (setting [14]), 70.4. Besides, the metabolic stability entry in data set [3] is “high metabolic stability”. The ED50 MES in [4] (setting [13]) came out at 29.5 mg/kg; in [4] (setting [14]), 33.8 mg/kg. The “TD50 Rotarod” value in data set [5] (setting [13]) was over 100; in [5] (setting [14]), over 300.

With `[2H]c1c([2H])c([2H])c(CNC(=O)[C@@H](C)N2C(=O)C([2H])([2H])C([2H])([2H])C2=O)c([2H])c1[2H]` [d9-(R)-2, (2R)-2-(2,5-dioxopyrrolidin-1-yl-3,3,4,4-d4)-N-((phenyl-d5)methyl) propanamide], the ED50 6 Hz (32 mA) came out at 18.2 mg/kg in [1] (setting [13]) and 68 mg/kg in data set [1] (setting [14]). In addition, the “ED50 6 Hz (44 mA)” value in data set [2] (setting [13]) was found to be 78.3; in [2] (setting [14]), 109.8. In [3], the metabolic stability entry is “high metabolic stability”. In addition, the ED50 MES in data set [4] (setting [13]) was 45 mg/kg; in data set [4] (setting [14]) it was 57.7 mg/kg. Further, the “TD50 Rotarod” value is on record as 165.4 in [5] (setting [13]) and over 300 in data set [5] (setting [14]).

Consider `[2H]C([2H])(NC(=O)[C@@H](C)N1C(=O)C([2H])([2H])C([2H])([2H])C1=O)c1ccccc1` [d6-(R)-5, (R)-2-(2,5-dioxopyrrolidin-1-yl-3,3,4,4-d4)-N-(phenylmethyl-d2) propanamide], for which the “ED50 6 Hz (44 mA)” value in data set [2] (setting [13]) was 85.6; in [2] (setting [14]), 50.8. Also, the metabolic stability entry in data set [3] is given as “high metabolic stability”. The results for the ED50 MES in [4] (setting [13]) and in [4] (setting [14]) were 33.4 mg/kg and 28.7 mg/kg, respectively. For the same compound, the “TD50 Rotarod” value in data set [5] (setting [13]) is over 100; in data set [5] (setting [14]), over 300.

As to `[2H]C([2H])(NC(=O)[C@@H](C)N1C(=O)C([2H])([2H])C([2H])([2H])C1=O)c1ccccc1F` [d6-(R)-7, (R)-2-(2,5-dioxopyrrolidin-1-yl-3,3,4,4-d4)-N-((2-fluorophenyl)methyl-d2) propanamide], the ED50 6 Hz (32 mA) in [1] (setting [13]) amounted to 12.5 mg/kg; in [1] (setting [14]), 13.4 mg/kg. The “ED50 6 Hz (44 mA)” value turned out to be 25.1 in data set [2] (setting [13]) and 33.5 in data set [2] (setting [14]). Also, the metabolic stability entry in [3] is “high metabolic stability”. For the same compound, the “TD50 Rotarod” value in [5] (setting [13]) was over 100; in [5] (setting [14]), over 300.
